Assays:
[1] = target: T1, Recombinant STAT3 protein (STAT3 (G127-I722)) (Homo sapiens, UniProt P40763); assay: STAT3 Fluorescence Polarization (FP) Assay; assay type: binding; conditions: STAT3 25 nM, probe 5-FAM-GpYLPQTV-NH2 2 nM, 45-minute incubation; read-out: STAT3 (FP assay IC50)
T1 construct: Recombinant STAT3 protein (STAT3 (G127-I722))
Procedure, shortened: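 Displacement of a fluorescent phosphotyrosine peptide (5-FAM-GpYLPQTV-NH2, 2 nM) from 25 nM recombinant STAT3 G127-I722 was monitored by FP after 45 min at room temperature.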

[2] = target: T2, Recombinant STAT6 protein (STAT6 (W123-T658)) (Homo sapiens, UniProt P42226); assay: STAT6 Fluorescence Polarization (FP) Assay; assay type: binding; conditions: STAT6 250 nM, probe 5-FAM-Ap[…]-NH2 2 nM, 45-minute incubation; read-out: STAT6 (FP assay IC50)
T2 construct: Recombinant STAT6 protein (STAT6 (W123-T658))
T2 sequence (P42226 123-658): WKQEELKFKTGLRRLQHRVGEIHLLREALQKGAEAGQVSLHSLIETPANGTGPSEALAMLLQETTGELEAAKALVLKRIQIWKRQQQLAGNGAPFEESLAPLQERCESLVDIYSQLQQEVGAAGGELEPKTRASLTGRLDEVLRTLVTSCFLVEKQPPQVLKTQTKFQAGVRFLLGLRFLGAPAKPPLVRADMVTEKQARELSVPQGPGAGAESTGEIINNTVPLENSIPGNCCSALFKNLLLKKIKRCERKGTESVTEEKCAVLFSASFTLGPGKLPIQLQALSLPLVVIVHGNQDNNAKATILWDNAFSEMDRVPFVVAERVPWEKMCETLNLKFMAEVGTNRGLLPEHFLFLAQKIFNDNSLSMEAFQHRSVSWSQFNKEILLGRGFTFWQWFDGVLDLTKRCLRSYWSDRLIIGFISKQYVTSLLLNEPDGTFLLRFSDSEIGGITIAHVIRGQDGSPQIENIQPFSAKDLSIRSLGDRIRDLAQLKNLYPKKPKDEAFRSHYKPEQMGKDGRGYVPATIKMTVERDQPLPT
Procedure, shortened: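 Fluorescence polarization (mP) read-out: 250 nM STAT6 (W123-T658) plus 2 nM 5-FAM phosphotyrosine peptide, 45 min, room temperature, 1% DMSO. IC50 by nonlinear fit of mP against log compound concentration.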

T1 sequence (P40763 127-722): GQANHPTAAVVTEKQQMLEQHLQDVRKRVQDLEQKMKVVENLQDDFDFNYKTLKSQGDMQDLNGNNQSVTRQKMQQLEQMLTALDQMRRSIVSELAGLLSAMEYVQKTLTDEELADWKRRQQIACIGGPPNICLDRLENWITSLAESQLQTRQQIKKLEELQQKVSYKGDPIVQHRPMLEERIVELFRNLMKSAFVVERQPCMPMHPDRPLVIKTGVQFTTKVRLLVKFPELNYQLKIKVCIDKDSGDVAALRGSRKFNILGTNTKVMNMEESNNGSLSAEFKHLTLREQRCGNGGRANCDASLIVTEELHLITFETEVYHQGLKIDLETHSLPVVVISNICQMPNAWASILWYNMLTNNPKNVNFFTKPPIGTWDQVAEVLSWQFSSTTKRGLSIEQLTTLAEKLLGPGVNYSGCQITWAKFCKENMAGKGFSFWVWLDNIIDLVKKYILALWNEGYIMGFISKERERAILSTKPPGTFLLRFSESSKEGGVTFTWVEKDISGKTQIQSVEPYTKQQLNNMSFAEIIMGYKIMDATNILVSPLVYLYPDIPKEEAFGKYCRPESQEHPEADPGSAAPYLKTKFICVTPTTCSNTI

IC50 [1] | IC50 [2] | Compound
100 to 1000 nM | 3000 to 30000 nM | N=S1(=O)CC2(CN(C(=O)[C@@H]3CC[C@@H]4CCCC[C@H](NC(=O)c5cc6cc(C(F)(F)P(=O)(O)O)ccc6s5)C(=O)N43)C2)C1 [Compound 70, (difluoro(2-(((3S,6S,10aS)-3-(2-imino-2-oxido-2l6-thia-6-azaspiro[3.3]heptane-6-carbonyl)-5-oxodecahydropyrrolo [1,2-a]azocin-6-yl)carbamoyl)benzo[b]thiophen-5-yl)methyl) phosphonic acid]
100 to 1000 nM | 300 to 3000 nM | O=C(N[C@H]1CCCC[C@H]2CC[C@@H](C(=O)N3CC4(CNS(=O)(=O)C4)C3)N2C1=O)c1cc2cc(C(F)(F)P(=O)(O)O)ccc2s1 [Compound 71, ((2-(((3S,6S,10aS)-3-(6,6-dioxido-6-thia-2,7-diazaspiro[3.4]octane-2-carbonyl)-5-oxodecahydropyrrolo [1,2-a]azocin-6-yl)carbamoyl)benzo[b]thiophen-5-yl)difluoromethyl) phosphonic acid]
100 to 1000 nM | 300 to 3000 nM | O=C(N[C@H]1CCCC[C@H]2CC[C@@H](C(=O)N3CC4(CC(C5CC5)=NO4)C3)N2C1=O)c1cc2cc(C(F)(F)P(=O)(O)O)ccc2s1 [Compound 72, ((2-(((3S,6S,10aS)-3-(7-cyclopropyl-5-oxa-2,6-diazaspiro[3.4]oct-6-ene-2-carbonyl)-5-oxodecahydropyrrolo [1,2-a]azocin-6-yl)carbamoyl)benzo[b]thiophen-5-yl)difluoromethyl) phosphonic acid]
100 to 1000 nM | 3000 to 30000 nM | CS(=N)(=O)C1CN(C(=O)[C@@H]2CC[C@@H]3CCCC[C@H](NC(=O)c4cc5cc(C(F)(F)P(=O)(O)O)ccc5s4)C(=O)N32)C1 (stereo partly drawn) [Compound 73, (difluoro(2-(((3S,6S,10aS)-3-(3-(S-methylsulfonimidoyl)azetidine-1-carbonyl)-5-oxodecahydropyrrolo [1,2-a]azocin-6-yl)carbamoyl)benzo[b]thiophen-5-yl)methyl) phosphonic acid]
100 to 1000 nM | 3000 to 30000 nM | O=C(N[C@H]1CCCCC[C@H]2[C@H](O)C[C@@H](C(=O)N3CC(C(=O)N4CCOCC4)C3)N2C1=O)c1cc2cc(C(F)(F)P(=O)(O)O)ccc2s1 [Compound 77, (difluoro(2-(((1R,3S,6S, 11aS)-1-hydroxy-3-(3-(morpholine-4-carbonyl)azetidine-1-carbonyl)-5-oxodecahydro-1H-pyrrolo[1,2-a]azonin-6-yl)carbamoyl)benzo[b]thiophen-5-yl)methyl) phosphonic acid]
100 to 1000 nM | > 30000 nM | O=C(N[C@H]1CCC[C@H]2CC[C@@H](C(=O)N3CC(c4cccnc4)C3)N2C1=O)c1cc2cc(CP(=O)(O)O)ccc2s1 [Compound 78, ((2-(((3S,6S,9aS)-5-oxo-3-(3-(pyridin-3-yl)azetidine-1-carbonyl)octahydro-1H-pyrrolo[1,2-a]azepin-6-yl)carbamoyl)benzo[b]thiophen-5-yl)methyl) phosphonic acid]
< 100 nM | 300 to 3000 nM | C[C@@H]1[C@@H](n2ccnc2)CN1C(=O)[C@@H]1CC[C@@H]2CCC[C@H](NC(=O)c3cc4cc(C(F)(F)P(=O)(O)O)ccc4s3)C(=O)N21 [Compound 81, ((2-(((3S,6S,9aS)-3-((2R,3S)-3-(1H-imidazol-1-yl)-2-methylazetidine-1-carbonyl)-5-oxooctahydro-1H-pyrrolo[1,2-a]azepin-6-yl)carbamoyl)benzo[b]thiophen-5-yl)difluoromethyl) phosphonic acid]
100 to 1000 nM | ≤ 300 nM | O=C(N[C@H]1CCCC[C@H]2CC[C@@H](C(=O)N3CC[C@@H](c4ccccc4)C3)N2C1=O)c1cc2cc(C(F)(F)P(=O)(O)O)ccc2s1 [Compound 82, (difluoro(2-(((3S,6S,10aS)-5-oxo-3-((S)-3-phenylpyrrolidine-1-carbonyl)decahydropyrrolo [1,2-a]azocin-6-yl)carbamoyl)benzo[b]thiophen-5-yl)methyl) phosphonic acid]
